Experimental data: paper PMC10146281, “Pharmacokinetic and Pharmacodynamic Characteristics of Pelubiprofen Tromethamine vs. Pelubiprofen in Healthy Subjects” (Pharmaceutics, 2023)

Key:
[1] = Study I (DW1809-102): pharmacokinetic analysis of plasma pelubiprofen (LC-MS/MS) after single oral dose; details: for Tmax: N = 35, median (minimum–maximum)
Procedure: (§1) In this study, the two independent clinical trials (Study I and II) were conducted using an identical randomized, open-label, oral, single-dose, fasted, two-sequence, four-period, crossover design. Due to the known pharmacokinetic characteristics of pelubiprofen with its large intra-subject variability, the replicated design was chosen to calculate the true intra-coefficient of variation in both studies. Study I tested 25 mg of pelubiprofen tromethamine (36.73 mg of pelubiprofen tromethamine salt; 25 mg of pelubiprofen, Daewon Pharmaceutical Co., Ltd., Seoul, Republic of Korea) against 30 mg of pelubiprofen (30.0 mg of pelubiprofen, Daewon Pharmaceutical Co., Ltd., Seoul, Republic of Korea) as the reference. Study II tested 30 mg of pelubiprofen tromethamine (44.07 mg of pelubiprofen tromethamine salt; 30 mg of pelubiprofen, Daewon Pharmaceutical Co., Ltd., Seoul, Republic of Korea) against 30 mg of pelubiprofen (30.0 mg of pelubiprofen, Daewon Pharmaceutical Co., Ltd., Seoul, Republic of Korea) as the reference. The target number of subjects in both Study I and II was set to N = 36 (N = 18 for each sequence group) (Figure 1, Table 1).
(§2) The subject screening in both Study I and Study II was performed in the four weeks ([…]) prior to the first administration (Day 1). […] In addition, the screened subjects fasted for at least 10 h, excluding drinking water, from approximately 10 p.m. until administration of the investigational drug. The randomization in both Study I and II led the subjects to receive oral administration of a single test or reference tablet with approximately 150 mL of water at each time point from approximately 8 a.m. at approximately 2 min intervals according to their numbers. The subjects in both Study I and II were prohibited from drinking water for an hour before and after the administration, except during drug administration. The post-administration blood sampling and tests were performed as scheduled. All subjects were provided with identical meals approximately 4 h after blood sampling. The subjects in both Study I and II received the blood sampling and tests for the pharmacokinetic (PK) evaluation approximately 8 h after administration. Then, they were discharged following the completion of the first period of the study.
(§3) To analyze the PK characteristics in both Study I and II, approximately 5 mL of blood was sampled before administration (0 h) and at the following time points after administration; 0.083 h (5 min), 0.167 h (10 min), 0.33 h (20 min), and 0.5, 0.75, 1, 1.5, 2, 2.5, 3, 3.5, 4, 6, and 8 h. Therefore, for each subject, the blood sampling was performed 15 times in each period, resulting in a total of 60 times. All four periods proceeded on the same schedule as the first period in both Study I and II. The wash-out period between each consecutive period was set to a minimum of four days. The subjects in both Study I and II, after completing all four periods, chose a day from Day 5 to Day 7 of the final administration in the four period for visiting the center to undergo post study visit.
(§4) The validation of the quantitative analysis of plasma pelubiprofen in this study was performed in accordance with the following guidelines: the Validation Protocol for Pelubiprofen Quantification, the domestic Standard Operating Procedure (SOP) for Bioanalyses, the Guideline of Bioanalytical Method Validation (MFDS, December 2013), and Bioanalytical Method Validation Guidance for Industry (USA FDA, 2018). The plasma pelubiprofen was pretreated using protein precipitation in a dark room at room temperature (15–25 °C) and under shielded light for the subsequent liquid chromatograph tandem mass spectrometry (LC-MS/MS) analysis. The tested items in the validation included the intra-batch and inter-batch accuracy, precision, selectivity, linearity, and stability.

[2] = Study II (DW1809-103): pharmacokinetic analysis of plasma pelubiprofen (LC-MS/MS) after single oral dose
Procedure: as §1, §2, §3, §4

[3] = Study I safety and tolerability evaluation (adverse events); assay type: in vivo, human; details: for adverse events: Study I, 36 subjects evaluated, all mild
Procedure: In both Study I and II, the safety evaluation was performed on subjects administered with the investigational drug at least once. Any clinically significant findings in the interview, physical examination, vital signs, 12-lead electrocardiogram (ECG), the clinical laboratory test, etc., during the study period were collected as adverse events, which were subsequently evaluated for the incidence of serious adverse events, severity, causal relationship, etc. All relevant data were collected through monitoring by the investigator and voluntary reporting by the subjects. To collect additional data, interview and physical examination were performed where necessary. The investigator carried out the follow-up monitoring of the subjects with adverse events until the symptoms subsided and abnormal test values returned to a healthy baseline or until a satisfactory explanation for the observed change could be provided.

[4] = Study I, healthy subjects, single oral 25 mg pelubiprofen tromethamine, fasted, N = 35, mean ± SD
[5] = Study II, 30 mg pelubiprofen tromethamine vs. 30 mg pelubiprofen
[6] = Study II, healthy subjects, single oral 30 mg pelubiprofen tromethamine, fasted, N = 33, mean ± SD

CC(C(=O)O)c1ccc(/C=C2\CCCCC2=O)cc1 (stereo not drawn) [Pelubiprofen Tromethamine, pelubiprofen tromethamine]
time after oral administration at which plasma concentration of pelubiprofen returned to baseline ([1]; Study I, 25 mg pelubiprofen tromethamine dose group): approximately 4 h
bioequivalence evaluation of Cmax and AUC0-t vs. 30 mg pelubiprofen ([1]; Study I, 25 mg pelubiprofen tromethamine, criteria 90% CI log 0.70–log 1.43 (Cmax), log 0.8–log 1.25 (AUC0-t)): satisfied the bioequivalence study criteria
AUC0-inf [1, 4]: 372.12 ± 92.16 ng·h/mL
AUC0-t [1, 4]: 370.76 ± 91.86 ng·h/mL
CL/F [1, 4]: 71.78 ± 19.79 L/h
Cmax [1, 4]: 645.80 ± 237.73 ng/mL
Vd/F [1, 4]: 87.43 ± 40.63 L
t1/2 [1, 4]: 52.2 ± 23.4 min
Tmax ([1]; Study I, healthy subjects, single oral 25 mg pelubiprofen tromethamine, fasted): 0.33 (0.17–1.50) h
Tmax ([1]; Study I, healthy subjects, single oral 25 mg pelubiprofen tromethamine, fasted, listed as pelubiprofen tromethamine): approximately 0.33 h
increase of AUC0-t compared to the reference [2, 5]: 24%
increase of Cmax compared to the reference [2, 5]: 29%
AUC0-inf [2, 6]: 447.75 ± 123.40 ng·h/mL
AUC0-t [2, 6]: 446.44 ± 123.33 ng·h/mL
CL/F [2, 6]: 72.08 ± 19.97 L/h
Cmax [2, 6]: 770.01 ± 347.86 ng/mL
Vd/F [2, 6]: 94.56 ± 52.40 L
t1/2 [2, 6]: 57 ± 33.6 min
Tmax ([2]; Study II, healthy subjects, single oral 30 mg pelubiprofen tromethamine, fasted, N = 33, median (minimum–maximum)): 0.33 (0.17–2.50) h
tolerability and safety ([3]; 25 mg pelubiprofen tromethamine compared to 30 mg pelubiprofen, healthy subjects, single oral dose): outstanding tolerability and safety
adverse events ([3]; treatment of the test (25 mg pelubiprofen tromethamine)): one case of adverse events

CC(C(=O)O)c1ccc(/C=C2\CCCCC2=O)cc1 (stereo not drawn) [Pelubiprofen, 2-[4-(oxocyclohexylidenemethyl)-phenyl] propionic acid]
CL/F ([1]; Study I, healthy subjects, single oral 30 mg pelubiprofen (reference), fasted, N = 35, mean ± SD): 92.12 ± 28.68 L/h
Tmax ([1]; Study I, healthy subjects, single oral 30 mg pelubiprofen (reference), fasted): 0.33 (0.17–3.50) h
highest within-subject variability for Cmax ([1]; Study I, reference 30 mg pelubiprofen, four-period repeated crossover): approximately 58%
AUC0-inf ([1]; human, plasma, po, 30 mg): 355 ± 103 ng·h/mL
AUC0-t ([1]; human, plasma, po, 30 mg): 352 ± 103 ng·h/mL
Cmax ([1]; human, plasma, po, 30 mg): 619 ± 368 ng/mL
Vd/F ([1]; human, plasma, po, 30 mg): 125 ± 58.8 L
half-life ([1]; human, plasma, po, 30 mg): 59.4 ± 32.4 min
Tmax ([1]; human, plasma, po, 30 mg, Tmax, Study I, healthy subjects, single oral 30 mg pelubiprofen (reference), fasted): ~19.8 min
CL/F ([2]; Study II, healthy subjects, single oral 30 mg pelubiprofen (reference), fasted, N = 33, mean ± SD): 90.55 ± 32.04 L/h
highest within-subject variability for Cmax ([2]; Study II, reference 30 mg pelubiprofen, fasting, four-period repeated crossover): approximately 58%
AUC0-inf ([2]; human, plasma, po, 30 mg): 366 ± 108 ng·h/mL
AUC0-t ([2]; human, plasma, po, 30 mg): 365 ± 108 ng·h/mL
Cmax ([2]; human, plasma, po, 30 mg): 619 ± 336 ng/mL
Tmax ([2]; human, plasma, po, 30 mg): 30 min
Vd/F ([2]; human, plasma, po, 30 mg): 119 ± 94.1 L
half-life ([2]; human, plasma, po, 30 mg): 55.8 ± 41.4 min
adverse events ([3]; treatment of reference (30 mg pelubiprofen)): three cases of adverse events
